Experimental data reported in patent US20240228438A1, “SOLID FORMS OF SALTS OF 4-[5-[(3S)-3-AMINOPYRROLIDINE-1-CARBONYL]-2-[2-FLUORO-4-(2- HYDROXY-2-ETHYLPROPYL)PHENYL]PHENYL]-2-FLUORO-BENZONITRILE” (Astex Pharmaceuticals, Inc., priority 2021, published 2024).
Counter-ions that a name gives are not always drawn. Values belong to the molecule of their own block, whether it stands above or below them.

Key:
[1] = Stability testing: water absorption of salt forms at 40° C. and 75% RH for five days (KF); type: physicochemical; details: for Initial KF: water content before exposure; for KF water content after 5 days at 40° C./75% RH: open vial covered with Kim wipe
Method: The stability of different salt forms was tested. The salts were placed in 20-mL scintillation vials and covered with Kim wipe, and the resulting vials were exposed to 40° C. and 75% RH (relative humidity) for five days. The samples were analyzed for water absorption.

[2] = Aqueous solubility of the salt form (overall assessment); type: physicochemical; details: in words

Initial KF ([1]; mesylate): 2.55%
Structure (SMILES): CC(C)(O)Cc1ccc(-c2ccc(C(=O)N3CC[C@H](N)C3)cc2-c2ccc(C#N)c(F)c2)c(F)c1 [mesylate Form IIIA, 4-[5-[(3S)-3-aminopyrrolidine-1-carbonyl]-2-[2-fluoro-4-(2-hydroxy-2-methylpropyl)phenyl]phenyl]-2-fluoro-benzonitrile mesylate]

moisture take-up under the tested conditions ([1]; 40° C./75% RH, five days, result in words): did not take-up moisture
KF water content after 5 days at 40° C./75% RH ([1]; five days): 0.63%
Initial KF [1]: 0.61%
Structure (SMILES): CC(C)(O)Cc1ccc(-c2ccc(C(=O)N3CC[C@H](N)C3)cc2-c2ccc(C#N)c(F)c2)c(F)c1 [mono-fumarate Form VI]

KF water content after 5 days at 40° C./75% RH ([1]; five days, mono-oxalate): 4.46%
hygroscopicity ([1]; overall assessment, in words): slightly hygroscopic
Initial KF ([1]; mono-oxalate): 1.06%
aqueous solubility [2]: good aqueous solubility
Structure (SMILES): CC(C)(O)Cc1ccc(-c2ccc(C(=O)N3CC[C@H](N)C3)cc2-c2ccc(C#N)c(F)c2)c(F)c1 [mono-oxalate (from EtOH) Form II, 4-[5-[(3S)-3-aminopyrrolidine-1-carbonyl]-2-[2-fluoro-4-(2-hydroxy-2-methylpropyl)phenyl]phenyl]-2-fluoro-benzonitrile mono-oxalate]

KF water content after 5 days at 40° C./75% RH ([1]; five days): 4.99%
Initial KF [1]: 2.66%
Structure (SMILES): CC(C)(O)Cc1ccc(-c2ccc(C(=O)N3CC[C@H](N)C3)cc2-c2ccc(C#N)c(F)c2)c(F)c1 [mono-oxalate salt (from IPA)]

Second part, the molecule before the results:

Structure (SMILES): CC(C)(O)Cc1ccc(-c2ccc(C(=O)N3CC[C@H](N)C3)cc2-c2ccc(C#N)c(F)c2)c(F)c1 [esylate Form IVA, 4-[5-[(3S)-3-aminopyrrolidine-1-carbonyl]-2-[2-fluoro-4-(2-hydroxy-2-methylpropyl)phenyl]phenyl]-2-fluoro-benzonitrile esylate]
Initial KF [1]: 0.76%

Structure (SMILES): CC(C)(O)Cc1ccc(-c2ccc(C(=O)N3CC[C@H](N)C3)cc2-c2ccc(C#N)c(F)c2)c(F)c1 [hemi-fumarate Form I, 4-[5-[(3S)-3-aminopyrrolidine-1-carbonyl]-2-[2-fluoro-4-(2-hydroxy-2-methylpropyl)phenyl]phenyl]-2-fluoro-benzonitrile hemi fumarate]
KF water content after 5 days at 40° C./75% RH ([1]; five days): 1.57%
hygroscopicity ([1]; overall assessment, in words): slightly hygroscopic
residual water ([1]; overall assessment, in words): low residual water
Initial KF [1]: 0.69%

Structure (SMILES): CC(C)(O)Cc1ccc(-c2ccc(C(=O)N3CC[C@H](N)C3)cc2-c2ccc(C#N)c(F)c2)c(F)c1 [maleate Form V, 4-[5-[(3S)-3-aminopyrrolidine-1-carbonyl]-2-[2-fluoro-4-(2-hydroxy-2-methylpropyl)phenyl]phenyl]-2-fluoro-benzonitrile maleate]
Initial KF ([1]; maleate): 1.08%
